Results reported in ChEMBL document CHEMBL3868619, “Synthesis and biological assessment of novel N-(hydroxy/methoxy)alkyl β-enaminone curcuminoids” (Bioorg Med Chem Lett, 2016).
Values after ≈ are worked out from the molar mass of the structure shown.

Tests used:
Caco-2 [1] = assay: Induction of ROS generation in human Caco2 cells at 1 uM using DCFH-DA by fluorescence assay relative to control; assay type: functional
HepG2 [2] = assay: Induction of ROS generation in human HepG2 cells at 10 uM using DCFH-DA by fluorescence assay relative to control; assay type: functional
EA.hy 926 [3] = assay: Induction of ROS generation in human EAhy926 cells at 10 uM using DCFH-DA by fluorescence assay relative to control; assay type: functional
[4] = Aqueous solubility of the compound in sodium phosphate buffer at pH 6.8 after 24 hrs by shake flask method; assay type: physicochemical
[5] = Solubility of the compound in ethyl acetate; assay type: physicochemical
HepG2 [6] = assay: Induction of ROS generation in human HepG2 cells at 1 uM using DCFH-DA by fluorescence assay relative to control; assay type: functional
[7] = Solubility of the compound in methanol; assay type: physicochemical
[8] = Induction of ROS generation in CHOK1 cells at 1 uM using DCFH-DA by fluorescence assay relative to control; assay type: cell-based, Cricetulus griseus; conditions: chinese hamster, cho-k1, 1 µM
HT-29 [9] = assay: Induction of ROS generation in human HT-29 cells at 10 uM using DCFH-DA by fluorescence assay relative to control; assay type: functional
[10] = Cytotoxicity against human HT-29 cells assessed as decrease in cell viability after 48 hrs by MTT assay; assay type: functional, cell-based; conditions: HT-29, 48 h
HT-29 [11] = assay: Induction of ROS generation in human HT-29 cells at 1 uM using DCFH-DA by fluorescence assay relative to control; assay type: functional
[12] = Solubility of the compound in ethanol; assay type: physicochemical
[13] = Induction of ROS generation in CHOK1 cells at 10 uM using DCFH-DA by fluorescence assay relative to control; assay type: cell-based, Cricetulus griseus; conditions: chinese hamster, cho-k1, 10 µM
[14] = Cytotoxicity against human HepG2 cells assessed as decrease in cell viability after 48 hrs by MTT assay; assay type: functional, cell-based; conditions: HepG2, 48 h
[15] = Aqueous solubility of the compound in sodium phosphate buffer at pH 6.8 after 90 mins by shake flask method; assay type: physicochemical
[16] = Solubility of the compound in acetone; assay type: physicochemical
EA.hy 926 [17] = assay: Induction of ROS generation in human EAhy926 cells at 1 uM using DCFH-DA by fluorescence assay relative to control; assay type: functional
[18] = Cytotoxicity against human Caco2 cells assessed as decrease in cell viability after 48 hrs by MTT assay; assay type: functional, cell-based; conditions: Caco-2, 48 h
[19] = Cytotoxicity against CHOK1 cells assessed as decrease in cell viability after 48 hrs by MTT assay; assay type: toxicity, cell-based, Cricetulus griseus; conditions: Chinese hamster, CHO-K1 cells
[20] = Cytotoxicity against human EAhy926 cells assessed as decrease in cell viability after 48 hrs by MTT assay; assay type: toxicity, cell-based, EA.hy 926; conditions: EA.hy926 cells
[21] = Solubility of the compound in dimethyl sulfoxide; assay type: physicochemical
[22] = Chemical stability of the compound sodium phosphate buffer at pH 6.8 after 24 hrs by LC-MS analysis; assay type: physicochemical; conditions: pH 6.8, 24 h
[23] = Solubility of the compound in 2-methyl-THF; assay type: physicochemical
[24] = Solubility of the compound in dimethylformamide; assay type: physicochemical
[25] = Antioxidant activity assessed as DPPH radical scavenging activity after 30 mins by spectrophotometric analysis; assay type: functional
Caco-2 [26] = assay: Induction of ROS generation in human Caco2 cells at 10 uM using DCFH-DA by fluorescence assay relative to control; assay type: functional

COc1cc(/C=C/C(=O)/C=C(/C=C/c2ccc(O)c(OC)c2)NCCO)ccc1O
Activity (Caco-2 [1]): 103.4% | Activity (HepG2 [2]): 91.2% | Activity (EA.hy 926 [3]): 102.4% | solubility thermodynamic at 24 h [4]: 11.8 µM (≈ 4.85 µg/mL) | solubility [5]: Insoluble | Activity (HepG2 [6]): 86.3% | solubility [7]: Soluble | Activity [8]: 93.5% | Activity (HT-29 [9]): 102.7% | IC50 [10]: > 100 µM | Activity (HT-29 [11]): 95.8% | solubility [12]: Soluble | Activity [13]: 90.9% | IC50 [14]: > 100 µM | solubility thermodynamic at 1.5 h [15]: 8.14 µM (≈ 3.35 µg/mL) | solubility [16]: Insoluble | Activity (EA.hy 926 [17]): 113.3% | IC50 [18]: 87.2 µM | IC50 at 48 h [19]: 87.5 µM | IC50 at 48 h [20]: > 100 µM | solubility [21]: Soluble | Stability [22]: Stable | solubility [23]: Insoluble | solubility [24]: Soluble | EC50 [25]: 28.3 µM | Activity (Caco-2 [26]): 96.6%

O=C(/C=C(/C=C/c1ccc(O)cc1)NCCO)/C=C/c1ccc(O)cc1
Activity (Caco-2 [1]): 98.1% | Activity (HepG2 [2]): 83.6% | Activity (EA.hy 926 [3]): 99.3% | solubility thermodynamic at 24 h [4]: 37.9 µM (≈ 13.3 µg/mL) | solubility [5]: Insoluble | Activity (HepG2 [6]): 82.7% | solubility [7]: Soluble | Activity [8]: 93.4% | Activity (HT-29 [9]): 90.6% | IC50 [10]: 66.2 µM | Activity (HT-29 [11]): 94.9% | solubility [12]: Soluble | Activity [13]: 85.7% | IC50 [14]: 48.4 µM | solubility thermodynamic at 1.5 h [15]: 38.7 µM (≈ 13.6 µg/mL) | solubility [16]: Insoluble | Activity (EA.hy 926 [17]): 108% | IC50 [18]: 57.9 µM | IC50 at 48 h [19]: 66 µM | IC50 at 48 h [20]: 50.2 µM | solubility [21]: Soluble | Stability [22]: Stable | solubility [23]: Insoluble | solubility [24]: Soluble | EC50 [25]: > 200 µM | Activity (Caco-2 [26]): 87.1%

COc1cc(/C=C/C(=O)/C=C(/C=C/c2ccc(O)c(OC)c2)NCCCO)ccc1O
Activity (Caco-2 [1]): 93.4% | Activity (HepG2 [2]): 101.5% | Activity (EA.hy 926 [3]): 102.2% | solubility thermodynamic at 24 h [4]: 56.3 µM (≈ 24 µg/mL) | solubility [5]: Insoluble | Activity (HepG2 [6]): 90% | solubility [7]: Soluble | Activity [8]: 90.4% | Activity (HT-29 [9]): 98.8% | IC50 [10]: > 100 µM | Activity (HT-29 [11]): 98.8% | solubility [12]: Soluble | Activity [13]: 89.9% | IC50 [14]: > 100 µM | solubility thermodynamic at 1.5 h [15]: 25.4 µM (≈ 10.8 µg/mL) | solubility [16]: Insoluble | Activity (EA.hy 926 [17]): 114.3% | IC50 [18]: 75.7 µM | IC50 at 48 h [19]: 88.5 µM | IC50 at 48 h [20]: > 100 µM | solubility [21]: Soluble | Stability [22]: Stable | solubility [23]: Insoluble | solubility [24]: Soluble | EC50 [25]: 27.6 µM | Activity (Caco-2 [26]): 91%

COCCNC(=C\C(=O)/C=C/c1ccc(O)cc1)/C=C/c1ccc(O)cc1
Activity (Caco-2 [1]): 94.9% | Activity (HepG2 [2]): 77.9% | Activity (EA.hy 926 [3]): 134.2% | solubility thermodynamic at 24 h [4]: 46.1 µM (≈ 16.8 µg/mL) | solubility [5]: Insoluble | Activity (HepG2 [6]): 76.4% | solubility [7]: Soluble | Activity [8]: 82.5% | Activity (HT-29 [9]): 96.8% | IC50 [10]: 57.4 µM | Activity (HT-29 [11]): 97% | solubility [12]: Soluble | Activity [13]: 75.1% | IC50 [14]: 63.3 µM | solubility thermodynamic at 1.5 h [15]: 37.5 µM (≈ 13.7 µg/mL) | solubility [16]: Insoluble | Activity (EA.hy 926 [17]): 130.3% | IC50 [18]: 28 µM | IC50 at 48 h [19]: 34.9 µM | IC50 at 48 h [20]: 45.1 µM | solubility [21]: Soluble | Stability [22]: Stable | solubility [23]: Insoluble | solubility [24]: Soluble | EC50 [25]: > 200 µM | Activity (Caco-2 [26]): 89.7%

COCCCNC(=C\C(=O)/C=C/c1ccc(O)cc1)/C=C/c1ccc(O)cc1
Activity (Caco-2 [1]): 97% | Activity (HepG2 [2]): 71.6% | Activity (EA.hy 926 [3]): 98.7% | solubility thermodynamic at 24 h [4]: 14.8 µM (≈ 5.63 µg/mL) | solubility [5]: Insoluble | Activity (HepG2 [6]): 79.5% | solubility [7]: Soluble | Activity [8]: 99.8% | Activity (HT-29 [9]): 95.7% | IC50 [10]: 51.9 µM | Activity (HT-29 [11]): 98% | solubility [12]: Soluble | Activity [13]: 97% | IC50 [14]: 61.9 µM | solubility thermodynamic at 1.5 h [15]: 10.4 µM (≈ 3.97 µg/mL) | solubility [16]: Insoluble | Activity (EA.hy 926 [17]): 107.6% | IC50 [18]: 24 µM | IC50 at 48 h [19]: 44.9 µM | IC50 at 48 h [20]: 81.9 µM | solubility [21]: Soluble | Stability [22]: Stable | solubility [23]: Insoluble | solubility [24]: Soluble | EC50 [25]: 130 µM | Activity (Caco-2 [26]): 89%

COc1cc(/C=C/C2=CC(=O)CC(c3ccc(O)c(OC)c3)N2CCCO)ccc1O (stereo not given)
Activity (Caco-2 [1]): 95.6% | Activity (HepG2 [2]): 96.3% | Activity (EA.hy 926 [3]): 123.5% | solubility thermodynamic at 24 h [4]: 62.9 µM (≈ 26.8 µg/mL) | Activity (HepG2 [6]): 95.2% | Activity [8]: 91.8% | Activity (HT-29 [9]): 96.5% | IC50 [10]: > 100 µM | Activity (HT-29 [11]): 98.1% | Activity [13]: 80.3% | IC50 [14]: > 100 µM | solubility thermodynamic at 1.5 h [15]: 58.9 µM (≈ 25.1 µg/mL) | Activity (EA.hy 926 [17]): 122% | IC50 [18]: 88 µM | IC50 at 48 h [19]: > 100 µM | IC50 at 48 h [20]: > 100 µM | Stability [22]: Stable | EC50 [25]: 33.9 µM | Activity (Caco-2 [26]): 91%

O=C(/C=C(/C=C/c1ccc(O)cc1)NCCCO)/C=C/c1ccc(O)cc1
Activity (Caco-2 [1]): 94.1% | Activity (HepG2 [2]): 88.7% | Activity (EA.hy 926 [3]): 109.9% | solubility thermodynamic at 24 h [4]: 128 µM (≈ 46.9 µg/mL) | solubility [5]: Insoluble | Activity (HepG2 [6]): 91.3% | solubility [7]: Soluble | Activity [8]: 86.4% | Activity (HT-29 [9]): 96.9% | IC50 [10]: 58.9 µM | Activity (HT-29 [11]): 92.5% | solubility [12]: Soluble | Activity [13]: 80.5% | IC50 [14]: 54.1 µM | solubility thermodynamic at 1.5 h [15]: 137 µM (≈ 49.9 µg/mL) | solubility [16]: Insoluble | Activity (EA.hy 926 [17]): 93.3% | IC50 [18]: 31.6 µM | IC50 at 48 h [19]: 39.1 µM | IC50 at 48 h [20]: 57.3 µM | solubility [21]: Soluble | Stability [22]: Stable | solubility [23]: Insoluble | solubility [24]: Soluble | EC50 [25]: 154 µM | Activity (Caco-2 [26]): 91.7%
